Data set [1] deals with SARS-CoV-2.
Data set [2] relates to HeLa-ACE2 cells.
Data set [3] has as its system SARS-CoV-2. The following applies: for EC50: read-out: Calu-3 CoV-2 EC50.
The test system of data set [4] is HeLa-ACE2 cells. The experiment in a line: cells. It is filed as cell-based, human.
Data set [5] deals with SARS-CoV-2. As to the kind of experiment: Checkerboard synergy study with remdesivir (ZIP model, synergyfinder). It is filed as cell-based.
A further data set in a line: in vitro. The following applies: human.
For data set [6] the following is noted: human, oral; cited from earlier work.
For data set [7], the system named is SARS-CoV-2. As to the kind of experiment: microbe, parasite or virus in culture.
Setting [8] is: Table 1, ZIP model, δ>10 synergy, δ<−10 antagonism, between additive.
The mark [9] stands for this setting: CC50 [μM] (Geomeans, n ≥ 2 except where indicated: *n = 1).
The mark [10] stands for this setting: Severe acute respiratory syndrome coronavirus 2, HeLa-ACE2, 24 h, read-out: CoV-2 EC50 [μM] (Geomeans, n ≥ 2).
The mark [11] stands for this setting: read-out: HeLa-ACE2 CoV-2 EC50, Table 4, aggregated data, Geomean, n = 3.
Setting [12] is: read-out: HeLa-ACE2 Uninfected Tox CC50, Table 4, aggregated data, Geomean, n = 3.
Where [13] appears, read: Table 4, aggregated data, Geomean, n = 3, 48 h.
Where [14] appears, read: read-out: Calu-3 Uninfected Tox CC50, Table 4, aggregated data, Geomean, n = 3.

Data on eleven compounds can be found in patent US20230346820A1, “METHODS AND COMPOSITIONS FOR THE TREATMENT OF SARS-COV-2” (priority 2020, published 2023).

Where a name gives a salt, the structure may show the parent alone. Read-outs that look alike come from different tables or passages of the source.

With `Cn1cnc([N+](=O)[O-])c1Sc1ncnc2[nH]cnc12` [Azathioprin], the “HeLa-ACE2 SI CC50/CoV-2 EC50” value with SARS-CoV-2 [1] worked out at 7.67. The EC50 (in general, the midpoint of the concentration-response curve) with SARS-CoV-2 [1] (read-out: HeLa-ACE2 CoV-2 EC50) came out at 5.08 µM; with SARS-CoV-2 [3], 0.482 µM. The CC50 was found to be 39 µM in the data set with HeLa-ACE2 cells [2] and 3.55 µM in the data set with Calu-3 cells. In addition, the “Calu3 SI CC50/CoV-2 EC50” value with SARS-CoV-2 [3] came to 7.35.
Consider `Nc1cc(OCC2CC2)c(C(=O)NC2CN3CCC2CC3)cc1Cl` (stereo not drawn) [Pancopride], for which the concentration for a half-maximal effect (EC50) with HeLa-ACE2 cells [4] (Homo sapiens, HeLa-ACE2, read-out: HeLa-ACE-2 EC50 [μM] (Geomeans, n ≥ 2)) is over 9.59 µM; in the data set on SARS-CoV-2 [7] (setting [10]), over 8.64 µM; in the data set on SARS-CoV-2 [7] (Severe acute respiratory syndrome coronavirus 2, HeLa-ACE2, read-out: SARS CoV-2 EC50 (μM)), over 8.64 µM. Besides, the figures for the “Synergy score with remdesivir (δ)” value in the data set on SARS-CoV-2 [5] (setting [8]) and in the data set on SARS-CoV-2 [5] (Table 3) were 0.648 and 0.65, respectively. Moreover, the “HeLa-ACE2 CC50/CoV-2 EC50” value in the data set with SARS-CoV-2 [1] worked out at 4.32. Also, the CC50 in “in vitro” (setting [9]) and in the data set “in vitro” (Uninfected HeLa-ACE2 CC50 (μM)) was over 37.3 µM in each case. Further, the Cmax – broadly, the highest concentration seen after dosing – in data set [6] is about 0.3 µM. Also, the t1/2 in data set [6] is listed as ~16 h (human, oral)(26).
Turning to `CC(CN(C)C)CN1c2ccccc2CCc2ccccc21` (stereo not drawn) [Trimipramine], in the data set on SARS-CoV-2 [1], the “HeLa-ACE2 CC50/CoV-2 EC50” value stood at 10.11. Besides, the CC50 in the data set with HeLa-ACE2 cells [2] (human) was 21.3 µM. Also, the EC50 in the data set on SARS-CoV-2 [7] (setting [10]) turned out to be 2.11 µM.
With `Cc1c(O)cccc1C(=O)N[C@@H](CSc1ccccc1)[C@H](O)CN1C[C@H]2CCCC[C@H]2C[C@H]1C(=O)NC(C)(C)C` [nelfinavir mesylate], the “Synergy score with remdesivir (δ)” value in the data set with SARS-CoV-2 [5] (setting [8]) is given as −1.233. Besides, in the data set with SARS-CoV-2 [1], the “HeLa-ACE2 CC50/CoV-2 EC50” value is given as over 2.08. For the same compound, the CC50 in “in vitro” (setting [9]) is over 18 µM. The CC50 in the data set “in vitro” (Uninfected HeLa-ACE2 CC50 (μM)) was over 18 µM. Further, in [6], the Cmax is about 17 µM and the t1/2 was ~4 h (human oral)(20). In addition, the EC50 with SARS-CoV-2 [7] (setting [10]) was over 8.64 µM.
As to `COC(=O)[C@H]1[C@H]2C[C@@H]3c4[nH]c5cc(OC)ccc5c4CCN3C[C@H]2C[C@@H](OC(=O)c2cc(OC)c(OC)c(OC)c2)[C@@H]1OC` [Reserpine], the EC50 in the data set with HeLa-ACE2 cells [4] (read-out: HeLa-ACE-2 EC50 [μM] (Geomeans, n ≥ 2)) was over 9.6 µM; in the data set with SARS-CoV-2 [1] (read-out: CoV-2 EC50 [μM] (Geomeans, n ≥ 2), Table 1, HeLa-ACE2, 24 h) it was over 5.51 µM. Further, in the data set on SARS-CoV-2 [1], the “HeLa-ACE2 CC50/CoV-2 EC50” value is given as over 6.60. This compound came in with a CC50 with HeLa-ACE2 cells [2] of over 36.4 µM.
Regarding Antimycin A3, the values for the EC50 with SARS-CoV-2 [1] (setting [11]) and in the data set with SARS-CoV-2 [3] (setting [13]) were over 9.59 µM and 0.036 µM, respectively. Also, the figures for the CC50 in the data set on HeLa-ACE2 cells [2] (setting [12]) and in the data set on Calu-3 cells (setting [14]) were over 39.8 µM and 3.9 µM, respectively. In addition, in the data set with SARS-CoV-2 [3] (Table 4), the “Calu3 SI CC50/CoV-2 EC50” value came out at 109.64.
In the case of `CC(=O)OC[C@H]1O[C@@H]([S-])[C@H](OC(C)=O)[C@@H](OC(C)=O)[C@@H]1OC(C)=O.CCP(CC)CC.[Au+]` [auranofin], the “HeLa-ACE2 SI CC50/CoV-2 EC50” value in the data set with SARS-CoV-2 [1] (Table 4) worked out at 0.64. Besides, the EC50 in the data set on SARS-CoV-2 [1] (setting [11]) amounted to 0.988 µM; in the data set on SARS-CoV-2 [3] (setting [13]) it was 0.525 µM. For the same compound, the CC50 with HeLa-ACE2 cells [2] (setting [12]) was 0.634 µM; in the data set with Calu-3 cells (setting [14]) it was 3.13 µM. Also, the “Calu3 SI CC50/CoV-2 EC50” value in the data set with SARS-CoV-2 [3] (Table 4) is recorded as 7.87.
In the case of `CCOc1ccc(Cc2nc3cc(N(C)S(=O)(=O)c4cccs4)ccc3n2CC2CCCCC2)nc1` [AZ-11713908], the EC50 with SARS-CoV-2 [1] (setting [11]) was over 9.59 µM; in the data set on SARS-CoV-2 [3] (setting [13]) it was 3.54 µM. In addition, the CC50 is 33 µM in the data set with HeLa-ACE2 cells [2] (setting [12]) and over 29.9 µM with Calu-3 cells (setting [14]). Further, the “Calu3 SI CC50/CoV-2 EC50” value in the data set on SARS-CoV-2 [3] (Table 4) is over 8.
For the compound Cloturin, the “HeLa-ACE2 SI CC50/CoV-2 EC50” value in the data set on SARS-CoV-2 [1] (Table 4) was 8.13. Besides, the results for the EC50 in the data set with SARS-CoV-2 [1] (setting [11]) and with SARS-CoV-2 [3] (setting [13]) were 3.88 µM and 0.304 µM, respectively. Moreover, the values for the CC50 with HeLa-ACE2 cells [2] (setting [12]) and in the data set on Calu-3 cells (setting [14]) were 31.5 µM and 2.01 µM, respectively. The “Calu3 SI CC50/CoV-2 EC50” value with SARS-CoV-2 [3] (Table 4) amounted to 6.62.
With `O=c1[nH]c2ccc(C(F)(F)F)cc2c(-c2cc(Cl)ccc2O)c1CCO` [BMS-223131], the EC50 is over 9.59 µM in the data set with SARS-CoV-2 [1] (setting [11]) and 5.14 µM in the data set on SARS-CoV-2 [3] (setting [13]). Also, the values for the CC50 with HeLa-ACE2 cells [2] (setting [12]) and with Calu-3 cells (setting [14]) were 21.4 µM and over 29.9 µM, respectively. For the same compound, the “Calu3 SI CC50/CoV-2 EC50” value in the data set on SARS-CoV-2 [3] (Table 4) is listed as over 5.8.
Take `CSc1ncnc2c1ncn2[C@@H]1O[C@H](CO)[C@@H](O)[C@H]1O` [6-Methyl mercaptopurineriboside]: the “HeLa-ACE2 SI CC50/CoV-2 EC50” value with SARS-CoV-2 [1] (Table 4) amounted to 4.27. For the same compound, the EC50 was found to be 3.6 µM in the data set on SARS-CoV-2 [1] (setting [11]) and 0.207 µM with SARS-CoV-2 [3] (setting [13]). Further, the CC50 in the data set on HeLa-ACE2 cells [2] (setting [12]) worked out at 15.4 µM; with Calu-3 cells (setting [14]) it was 1.2 µM. Also, the “Calu3 SI CC50/CoV-2 EC50” value with SARS-CoV-2 [3] (Table 4) worked out at 5.80.
